Activity calls are given as the source filed them. No cut-off for these calls is given here.
How the values were obtained:
[1] = biological target: T1, Solute carrier family 22 member 12 (Homo sapiens, UniProt Q96S37); assay: Inhibition of human URAT1 stably overexpressing in human HEK293 cells assessed as inhibition of 14C-uric acid uptake preincubated for 30 mins followed by substrate addition and measured after 15 mins using 14C-uric acid as substrate by liquid scintillation counting analysis; type: cell-based
T1 sequence (Q96S37 whole entry): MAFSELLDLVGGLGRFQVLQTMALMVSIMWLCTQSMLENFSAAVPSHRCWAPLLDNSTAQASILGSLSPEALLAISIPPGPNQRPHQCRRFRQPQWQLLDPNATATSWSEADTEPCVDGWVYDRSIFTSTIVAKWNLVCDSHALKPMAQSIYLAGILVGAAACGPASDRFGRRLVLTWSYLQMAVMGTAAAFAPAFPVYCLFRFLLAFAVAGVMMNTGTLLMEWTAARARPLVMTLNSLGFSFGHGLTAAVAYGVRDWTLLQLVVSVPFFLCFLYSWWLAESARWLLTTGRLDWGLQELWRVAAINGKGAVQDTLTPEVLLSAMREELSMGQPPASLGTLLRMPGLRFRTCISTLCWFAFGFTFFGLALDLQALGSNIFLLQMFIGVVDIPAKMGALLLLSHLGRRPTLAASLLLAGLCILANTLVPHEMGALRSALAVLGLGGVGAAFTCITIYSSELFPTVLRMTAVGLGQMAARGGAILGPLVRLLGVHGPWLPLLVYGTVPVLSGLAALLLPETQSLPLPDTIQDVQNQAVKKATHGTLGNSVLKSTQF

Mus musculus = assay: Anti-hyperuricemic activity against potassium oxonate induced hyperuricemia in Kunming mouse model assessed as decrease in serum urate level at 2 mg/kg, po and measured after 3 hrs; type: functional, organism-based
[2] = AUC(0 to infinity) in Sprague-Dawley rat at 5 mg/kg, iv and measured upto 24 hrs by LC-MS/MS analysis; type: ADME, organism-based; set-up: dose 5 mg/kg, time < 24 hrs, route iv; conditions: in vivo
[3] = Renal toxicity in Kunming mouse assessed as effect on creatinine level at 50 mg/kg,po for 14 days; type: organism-based; conditions: in vivo, 336 h, time 14 day
[4] = Subacute toxicity in Kunming mouse assessed as clonic convulsion at 50 mg/kg,po for 14 days; type: organism-based; conditions: in vivo, 336 h, time 14 day
[5] = MRT (0 to infinity) in Sprague-Dawley rat at 5 mg/kg, iv and measured upto 24 hrs by LC-MS/MS analysis; type: ADME, organism-based; conditions: in vivo
[6] = Subacute toxicity in Kunming mouse assessed as body weight change at 50 mg/kg,po for 14 days; type: organism-based; conditions: in vivo, 336 h, time 14 day
[7] = Oral bioavailability in Sprague-Dawley rat at 5 mg/kg and measured upto 24 hrs by LCMS analysis; type: ADME, organism-based; conditions: in vivo
HepG2 = assay: Cytotoxicity against human HepG2 cells assessed as reduction in cell viability upto 400 uM incubated for 24 hrs by MTT assay; type: toxicity, cell-based; conditions: hepg2, 24 h
[8] = Half life in Sprague-Dawley rat at 5 mg/kg, iv and measured upto 24 hrs by LC-MS/MS analysis; type: ADME, organism-based; conditions: in vivo
[9] = Toxicity in Kunming mouse assessed as inflammatory infiltration in liver at 50 mg/kg, po administered and measured after 14 days by HE staining; type: organism-based; conditions: in vivo, 336 h, time 14 day
[10] = Tmax in Sprague-Dawley rat at 5 mg/kg, po and measured upto 24 hrs by LC-MS/MS analysis; type: ADME, organism-based; conditions: in vivo
[11] = Renal toxicity in Kunming mouse assessed as effect on BUN level at 50 mg/kg,po for 14 days; type: organism-based; conditions: in vivo, 336 h, time 14 day
[12] = biological target: T2, Solute carrier family 22 member 6 (Homo sapiens, UniProt Q4U2R8); assay: Inhibition of OAT1 (unknown origin) transfected in HEK293 cells assessed as inhibition of 6-CFL uptake preincubated for 30 mins followed by 6-CFL addition and measured for 15 mins by fluorescence based microplate reader analysis; type: cell-based
T2 sequence (Q4U2R8 whole entry): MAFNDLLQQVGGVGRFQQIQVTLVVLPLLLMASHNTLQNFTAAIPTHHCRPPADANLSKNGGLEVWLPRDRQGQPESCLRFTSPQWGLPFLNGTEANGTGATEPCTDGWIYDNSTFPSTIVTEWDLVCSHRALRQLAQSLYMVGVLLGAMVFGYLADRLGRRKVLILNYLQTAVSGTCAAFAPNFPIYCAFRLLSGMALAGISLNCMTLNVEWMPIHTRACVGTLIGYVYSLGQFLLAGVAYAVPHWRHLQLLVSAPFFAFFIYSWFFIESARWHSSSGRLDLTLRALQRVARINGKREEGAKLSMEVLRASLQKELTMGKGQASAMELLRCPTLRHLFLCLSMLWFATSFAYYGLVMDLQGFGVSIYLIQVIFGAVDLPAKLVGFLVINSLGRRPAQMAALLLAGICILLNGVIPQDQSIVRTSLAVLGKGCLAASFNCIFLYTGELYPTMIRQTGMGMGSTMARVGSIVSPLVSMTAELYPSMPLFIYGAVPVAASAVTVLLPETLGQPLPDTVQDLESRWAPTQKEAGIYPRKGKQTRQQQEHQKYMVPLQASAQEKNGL

[13] = biological target: T3, Solute carrier family 2, facilitated glucose transporter member 9 (Mus musculus, UniProt Q3T9X0); assay: Inhibition of mouse GLUT9 transfected in human HEK293 cells assessed as inhibition of uric acid induced current by cell patch-clamp assay; type: cell-based
T3 sequence (Q3T9X0 whole entry): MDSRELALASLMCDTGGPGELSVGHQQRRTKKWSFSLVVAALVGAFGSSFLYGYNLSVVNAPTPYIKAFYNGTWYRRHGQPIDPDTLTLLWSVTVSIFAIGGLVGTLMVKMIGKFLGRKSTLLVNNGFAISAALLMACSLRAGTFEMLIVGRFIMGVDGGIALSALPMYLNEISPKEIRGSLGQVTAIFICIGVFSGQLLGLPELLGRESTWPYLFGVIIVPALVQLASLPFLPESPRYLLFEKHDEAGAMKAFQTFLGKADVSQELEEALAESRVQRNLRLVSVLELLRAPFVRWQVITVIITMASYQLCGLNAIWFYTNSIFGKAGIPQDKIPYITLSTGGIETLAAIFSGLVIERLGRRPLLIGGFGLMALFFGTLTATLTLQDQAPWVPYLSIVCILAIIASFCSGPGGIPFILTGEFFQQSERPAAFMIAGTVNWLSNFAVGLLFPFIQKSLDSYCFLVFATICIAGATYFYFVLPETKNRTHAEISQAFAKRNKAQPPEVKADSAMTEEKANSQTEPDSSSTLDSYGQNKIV

[14] = Subacute toxicity in Kunming mouse assessed as ruffled fur at 50 mg/kg,po for 14 days; type: organism-based; conditions: in vivo, 336 h, time 14 day
[15] = Toxicity in Kunming mouse assessed as appearance of normal tubular structure in kidney at 50 mg/kg, po administered and measured after 14 days by HE staining; type: organism-based; conditions: in vivo, 336 h, time 14 day
[16] = Subacute toxicity in Kunming mouse assessed as lethargy at 50 mg/kg,po for 14 days; type: organism-based; conditions: in vivo, 336 h, time 14 day
[17] = Cmax in Sprague-Dawley rat at 5 mg/kg, po and measured upto 24 hrs by LC-MS/MS analysis; type: ADME, organism-based; set-up: dose 5 mg/kg, time < 24 hrs, route po; conditions: in vivo
[18] = AUC(0 to infinity) in Sprague-Dawley rat at 5 mg/kg, po and measured upto 24 hrs by LC-MS/MS analysis; type: ADME, organism-based; set-up: time < 24 hrs, dose 5 mg/kg, route po; conditions: in vivo
[19] = MRT (0 to infinity) in Sprague-Dawley rat at 5 mg/kg, po and measured upto 24 hrs by LC-MS/MS analysis; type: ADME, organism-based; conditions: in vivo
[20] = Hepatotoxicity in Kunming mouse assessed as increase in AST level in serum at 50 mg/kg,po for 14 days in presence of BSO; type: toxicity, organism-based; conditions: in vivo, 336 h, time 14 day
[21] = Toxicity in Kunming mouse assessed as appearance of normal glomerulus cells in kidney at 50 mg/kg, po administered and measured after 14 days by HE staining; type: organism-based; conditions: in vivo, 336 h, time 14 day
[22] = Cmax in Sprague-Dawley rat at 5 mg/kg, iv and measured upto 24 hrs by LC-MS/MS analysis; type: ADME, organism-based; set-up: time < 24 hrs, dose 5 mg/kg, route iv; conditions: in vivo
[23] = Tmax in Sprague-Dawley rat at 5 mg/kg, iv and measured upto 24 hrs by LC-MS/MS analysis; type: ADME, organism-based; conditions: in vivo
[24] = Half life in Sprague-Dawley rat at 5 mg/kg, po and measured upto 24 hrs by LC-MS/MS analysis; type: ADME, organism-based; conditions: in vivo
[25] = Subacute toxicity in Kunming mouse assessed as animal death at 50 mg/kg,po for 14 days; type: organism-based; conditions: in vivo, 336 h, time 14 day
[26] = Subacute toxicity in Kunming mouse assessed as anorexia at 50 mg/kg,po for 14 days; type: organism-based; conditions: in vivo, 336 h, time 14 day
[27] = Hepatotoxicity in Kunming mouse assessed as increase in ALT level in serum at 50 mg/kg,po for 14 days in presence of BSO; type: toxicity, organism-based; conditions: in vivo, 336 h, time 14 day
[28] = Toxicity in Kunming mouse assessed as cell arrangements in liver at 50 mg/kg, po administered and measured after 14 days by HE staining; type: organism-based; conditions: in vivo, 336 h, time 14 day
[29] = Toxicity in Kunming mouse assessed as inflammatory infiltration in kidney at 50 mg/kg, po administered and measured after 14 days by HE staining; type: organism-based; conditions: in vivo, 336 h, time 14 day

O=C(c1cc(Cl)c(O)c(Cl)c1)n1cc(Br)c2cccnc21
IC50 [1]: 1.55 µM

Cc1ccc2c(cnn2C(=O)c2cc(Cl)c(O)c(Cl)c2)c1
IC50 [1]: 1.81 µM

O=C(O)CSc1nnc(Br)n1-c1ccc(C2CC2)c2ccccc12
Activity (Mus musculus): Active

O=C(c1cc(Cl)c(O)c(Cl)c1)n1ccc2ncccc21
IC50 [1]: 1.56 µM

O=C(c1ccc(O)c([N+](=O)[O-])c1)n1ccc2cccnc21
IC50 [1]: 2.95 µM

O=C(c1cc(Cl)c(O)c(Cl)c1)n1ncc2ccccc21
IC50 [1]: 2.26 µM

O=C(c1ccc(O)c(F)c1)n1ccc2cccnc21
IC50 [1]: 2.08 µM

Cc1cc(C(=O)n2ccc3cccnc32)cc(C)c1O
IC50 [1]: 2.7 µM

O=C(c1ccc(O)c(Cl)c1)n1ccc2cccnc21
IC50 [1]: 1.58 µM

CC1Cc2ccccc2N1C(=O)c1cc(Cl)c(O)c(Cl)c1 (stereo unspecified)
IC50 [1]: 1.6 µM

O=C(c1cc(Br)c(O)c(Br)c1)n1ccc2cccnc21
IC50 [1]: 2.3 µM

O=C(c1cc(Cl)c(O)c(Cl)c1)n1ccc2cccnc21
AUC(0-inf) [2]: 63800 ng·h/mL | Activity [3]: Non-Toxic | Activity [4]: Non-Toxic | MRT inf [5]: 9.85 h | Activity [6]: Non-Toxic | bioavailability [7]: 55.3% | Activity (HepG2): Toxic | half-life [8]: 6.8 h | Activity [9]: Non-Toxic | Tmax [10]: 0.29 h | Activity [11]: Non-Toxic | IC50 [12]: 10.2 µM | IC50 [13]: > 20 µM | Activity [14]: Non-Toxic | Activity [15]: Non-Toxic | Activity [16]: Non-Toxic | Cmax [17]: 6830 ng/mL | AUC(0-inf) [18]: 35300 ng·h/mL | MRT inf [19]: 7.27 h | Activity [20]: Non-Toxic | Activity [21]: Non-Toxic | Cmax [22]: 18400 ng/mL | Tmax [23]: 0.52 h | half-life [24]: 4.61 h | Activity [25]: Non-Toxic | Activity [26]: Non-Toxic | Activity [27]: Non-Toxic | Activity [28]: Non-Toxic | Activity [29]: Non-Toxic | IC50 [1]: 0.8 µM

O=C(c1cc(Cl)c(O)c(Cl)c1)n1ccc2cnccc21
IC50 [1]: 2.81 µM

O=C(c1ccc(O)c(Br)c1)n1ccc2cccnc21
IC50 [1]: 3.8 µM

Cc1cc(C(=O)n2ccc3cccnc32)ccc1O
IC50 [1]: 5.83 µM

O=C(c1cc(Cl)c(O)c(Cl)c1)n1ccc2c(Cl)ncnc21
IC50 [1]: 1.98 µM

COc1cc(C(=O)n2ccc3cccnc32)ccc1O
IC50 [1]: 2.69 µM

CC(C)(Sc1ccncc1-c1ccc(C#N)c2ccccc12)C(=O)O
IC50 [1]: 0.13 µM

COc1cc(C(=O)n2ccc3cccnc32)cc(OC)c1O
IC50 [1]: 4.85 µM

O=C(c1ccc(O)cc1)n1ccc2cccnc21
IC50 [1]: 1.72 µM

O=C(c1cc(Cl)c(O)c(Cl)c1)n1ccc2ccncc21
IC50 [1]: 3.22 µM

O=C(c1cc(Cl)c(O)c(Cl)c1)N1CCc2cc(Br)ccc21
IC50 [1]: 2.36 µM
